Experimental data reported in US6541463B1, “Inhibitors of type 5 and type 3 17β-hydroxysteroid dehydrogenase and methods for their use” (Endorecherche, Inc., priority 1998, dated 2003).
Where two headings read alike, the source gives them in different places.

Assays:
[1] = target: T1, human type 3 17β-hydroxysteroid dehydrogenase (Homo sapiens, UniProt P37058); assay: Enzymatic assay for type 3 17β-HSD; format: biochemical
T1 construct: expressed in transfected cells; host or cells: 293 cells, transient transfection; microsomal fraction (100 000×g pellet)
T1 sequence (P37058 1-310): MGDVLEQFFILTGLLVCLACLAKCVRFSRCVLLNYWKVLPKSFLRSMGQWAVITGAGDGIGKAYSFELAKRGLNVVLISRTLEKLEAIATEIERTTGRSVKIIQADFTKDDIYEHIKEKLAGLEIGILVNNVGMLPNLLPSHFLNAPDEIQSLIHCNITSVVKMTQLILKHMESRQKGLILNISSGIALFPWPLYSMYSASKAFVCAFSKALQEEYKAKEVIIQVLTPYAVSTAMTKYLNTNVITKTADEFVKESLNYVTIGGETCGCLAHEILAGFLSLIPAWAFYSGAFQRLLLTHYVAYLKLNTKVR
Excerpt: Enzymatic assay for types 1, 2, and 3 17β-HSD and types 1 and 3 3α-HSD”. Lower numbers of IC50 are desirable. Blank means that a determination was not done. The % of inhibition at the concentration of 3.10^−6M determined in preliminary screening test is reported in square braquets.
Enzyme sources. 293 cells transiently transfected with expression vectors encoding types 1, 2 and 3 17β-HSD (Luu-The et al., J. Steroid Biochem. Molec. Biol., 55: 581-587, 1995), types 1 and 2 5α-reductase (Luu-The et al., J. Invest. Dermatol., 102: 221-226, 1994) and types 1 and 3 3α-HSD (Dufort et al. Biochem. Biophys. Res. Commun. 228: 474-479, 1996), using the calcium phosphate procedure (Kingston et al., In: Current Protocols in Molecular Biology. Edited by E. M. Ausbel, R. Brent, R. E. Kingston, D. D. Moore, J. G. Seidman, J. A. Smith, K. Struhl. John Wiley & Sons, New York, pp. 9.1.1-9.1.9, 1991; Luu-The et al., J. Invest. Dermatol., 102: 221-226, 1994). For assays using cell subfractions, cells were sonicated in 50 mM sodium phosphate buffer (pH 7.4), containing 20% glycerol and 1 mM EDTA and centrifuged at 10 000×g for 30 min before centrifugation for 100 000×g for 1 h to separate the mitochondrial and microsomal fractions, respectively. The cytosol fractions (100 000×g supernatant) was used to determine type 1 activity while the microsomal fraction (pellet at 100 000×g) was used for measurement of types 2 and 3 17β-HSD activities.
Incubation. The enzymatic reaction was carried out at 37° C. in 1 ml of 50 mM sodium phosphate buffer, pH 7.4, containing 20% glycerol, 1 mM EDTA, and 2 mM cofactors (NADPH or AND^+) for 1 h in the presence of 0.1 μM ^14C-labeled substrate: estrone and 4-dione for types 1 and […] 17β-HSD, respectively, testosterone for type 2 17β-HSD as well as types 1 and 2 5α-reductases, DHT for types 1 and 3 3α-HSD activities, and the indicated concentration of inhibitor.
Extraction of metabolites, migration on TLC and quantification were as described above for the assay of type 5 17β-HSD.

Row | Structure (SMILES) | IC50 [1] | melting point | % of Inhibition of the Type 3 17β-HSD Activity ([1]; 3.10^−6 M inhibitor) | % of Inhibition of the Type 3 17β-HSD Activity ([1]; 3.10^−7 M inhibitor) | IC50 ([1]; Table 7, read-out: Inhibition of the Type 3 17β-HSD Activity IC50)
1 | C[C@]12CC[C@](O)(Cc3ccccc3)C[C@@H]1CC[C@@H]1[C@@H]2CC[C@]2(C)C(=O)CC[C@@H]12 [CS-213, 3β-benzyl-3α-Hydroxy-5α-androstane-17-one] | 31 ± 4 nM |  |  |  | 
2 | COCSc1ccc2c(c1)CC[C@@H]1[C@@H]2CC[C@]2(C)C(=O)CC[C@@H]12 [EM-1064, 3-Methoxymethylthio-Estra-1,3,5(10)-trien-17-one] |  | 55 °C | 92% | 62% | 
3 | CSCCSc1ccc2c(c1)CC[C@@H]1[C@@H]2CC[C@]2(C)C(=O)CC[C@@H]12 [EM-1065, 3-Methylthioethylthio-Estra-1,3,5(10)-trien-17-one] |  | 74 °C | 94% | 63% | 
4 | CSCOc1ccc2c(c1)CC[C@@H]1[C@@H]2CC[C@]2(C)C(=O)CC[C@@H]12 [EM-1066, 3-Methylthiomethyloxy-1,3,5(10)-estratrien-17-one] |  |  | 93% | 63% | 
5 | COCOc1ccc2c(c1)CC[C@@H]1[C@@H]2CC[C@]2(C)C(=O)CC[C@@H]12 [EM-1070, 3-Methyloxymethyloxy-1,3,5(10)-estratrien-17-one] |  |  | 90% | 57% | 
6 | CCOCCOc1ccc2c(c1)CC[C@@H]1[C@@H]2CC[C@]2(C)C(=O)CC[C@@H]12 [EM-1071, 3-Ethyloxyethyloxy-1,3,5(10)-estratrien-17-one] |  |  | 91% | 73% | 
7 | COCCOc1ccc2c(c1)CC[C@@H]1[C@@H]2CC[C@]2(C)C(=O)CC[C@@H]12 [EM-1073, 3-Methyloxyethyloxy-1,3,5(10)-estratrien-17-one] |  |  | 87% | 51% | 
8 | CCCCOc1ccc2c(c1)CC[C@@H]1[C@@H]2CC[C@]2(C)C(=O)CC[C@@H]12 [EM-1074, 3-Butyloxy-1,3,5(10)-estratrien-17-one] |  |  | 92% | 62% | 
9 | C[C@]12CC[C@](O)(CCc3ccccc3)C[C@@H]1CC[C@@H]1[C@@H]2CC[C@]2(C)C(=O)CC[C@@H]12 [EM-1324-CS, 3α-hydroxy-3β-phenylethyl-5α-androstane-17-one] |  |  |  |  | 31 ± 4 nM
10 | C[C@]12CC[C@@H](O)C[C@@H]1CC[C@@H]1[C@@H]2CC[C@]2(C)C(=O)CC[C@@H]12 [androsterone, reference compound] | 200 nM |  |  |  | 
